Measurements taken from article PMC9184693, “Molecular mechanism of interaction between fatty acid delta 6 desaturase and acyl-CoA by computational prediction” (AMB Express, 2022).

Biological target: T1, MpFADS6 (Micromonas pusilla delta 6 desaturase) (Micromonas pusilla, UniProt C1MMV2)
T1 construct: gene MICPUCDRAFT_32578; pYES2-MpFADS6 expressed in Saccharomyces cerevisiae INVSc1; membrane protein, whole-cell biotransformation
Assay: whole-cell biotransformation in yeast, GC-MS of fatty acid methyl esters
Type: cell-based
Details: product from 0.25 mM ALA fed to cells; formed as the acyl-CoA

T1 sequence (C1MMV2 entry or part of it): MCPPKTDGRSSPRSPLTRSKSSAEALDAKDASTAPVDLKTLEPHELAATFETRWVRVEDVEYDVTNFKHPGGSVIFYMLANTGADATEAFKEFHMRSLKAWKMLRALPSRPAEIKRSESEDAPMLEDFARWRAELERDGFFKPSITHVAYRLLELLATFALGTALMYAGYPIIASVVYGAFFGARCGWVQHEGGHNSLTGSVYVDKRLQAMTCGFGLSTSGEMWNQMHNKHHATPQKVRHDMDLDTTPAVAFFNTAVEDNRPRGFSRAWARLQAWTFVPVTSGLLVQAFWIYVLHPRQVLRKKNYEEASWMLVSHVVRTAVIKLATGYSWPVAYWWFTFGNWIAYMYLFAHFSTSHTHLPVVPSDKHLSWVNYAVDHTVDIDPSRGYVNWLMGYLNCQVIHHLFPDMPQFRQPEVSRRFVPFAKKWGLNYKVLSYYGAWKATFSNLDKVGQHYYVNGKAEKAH

CC/C=C\C/C=C\C/C=C\C/C=C\CCCCC(=O)O [stearidonic acid]
whole-cell biotransformation in yeast, GC-MS of fatty acid methyl esters: Desaturase activity is represented by the conversion rate of ALA to SDA
